Reference: patent US20230159527A1, “COMPOUNDS AS BCL-2 INHIBITORS” (Fochon Pharmaceuticals, Ltd., priority 2020, published 2023)

test system: DoHH2 cells; test: Cell proliferation assay, DoHH2 cells (MTS, 120 h); type: cell-based; details: Homo sapiens, DOHH-2
Experimental: MTS testing kit was purchased from Promega (Madison, Wis., USA). The RPMI-1640, Fetal bovine serum and Penicillin-Streptomycin were purchased from BI (Biological Industries, Beit Haemek, Israel). Dimethyl sulfoxide (DMSO) was purchased from Sigma (St. Louis, Mo., USA). DoHH2 (DSMZ catalog #: ACC47) cells were cultured in RPMI-1640 supplemented with Penicillin-Streptomycin and 10% FBS.
To investigate whether a compound is able to inhibit the activity of BCL-2 in cells, a mechanism-based assay using DoHH2 lines was developed. In this assay, the inhibition of BCL-2 was reflected by the inhibition of cell proliferation of DoHH2 cells. Cells were plated into 96-well plates at the optimized cell density of 5000 cells/well. Plates were incubated at 37° C., with 5% CO2 for 4h. Compounds were serially diluted and added to the plates with the final concentrations of 10000, 3333.3, 1111.1, 370.4, 123.5, 41.2, 13.7, 4.6 and 1.5 nM. Plates were incubated at 37° C., with 5% CO2 for 120 h. 20 μl MTS was added into each well and the plates were incubated at 37° C., with 5% CO2 for exactly 2 h. The absorbance was measured by a microplate reader at 490 nm. IC50 was calculated using GraphPad Prism 5.0 software.

Row | SMILES | IC50
1 | CC(C)c1ccccc1C1COCCN1C1CC2(CCN(c3ccc(C(=O)NS(=O)(=O)c4cc5c(c([N+](=O)[O-])c4)N[C@@H](CN4CCC(NS(C)(=O)=O)CC4)CO5)c(Oc4cnc5[nH]ccc5c4)c3)CC2)C1 (single isomer, unassigned) [Example D-23, 2-((1H-pyrrolo[2,3-b]pyridin-5-yl)oxy)-4-(2-((R or S)-3-(2-isopropylphenyl)morpholino)-7-azaspiro[3.5]nonan-7-yl)-N-(((S)-3-((4-(methylsulfonamido)piperidin-1-yl)methyl)-5-nitro-3,4-dihydro-2H-benzo[b][1,4]oxazin-7-yl)sulfonyl)benzamide] | ≤ 1 nM
2 | CC(C)c1ccccc1C1CCCN1C1CC2(CCN(c3ccc(C(=O)NS(=O)(=O)c4cc([N+](=O)[O-])c5c(n4)OC[C@@H](Cc4ccccc4)N5)c(Oc4cnc5[nH]ccc5c4)c3)CC2)C1 (single isomer, unassigned) [Example B-36, 2-((1H-pyrrolo[2,3-b]pyridin-5-yl)oxy)-N-(((R)-2-benzyl-8-nitro-2,3-dihydro-1H-pyrido[2,3-b] [1,4]oxazin-6-yl)sulfonyl)-4-(2-((R or S)-2-(2-isopropylphenyl)pyrrolidin-1-yl)-7-azaspiro[3.5]nonan-7-yl)benzamide] | ≤ 1 nM
3 | O=C(NS(=O)(=O)c1cc2c(c([N+](=O)[O-])c1)O[C@@H](CN1CCOCC1)CO2)c1ccc(N2CCC3(CC2)CC(N2CCOC[C@H]2c2ccccc2C2CC2)C3)cc1Oc1cnc2[nH]ccc2c1 (single isomer, unassigned) [Example E-37, 2-((1H-pyrrolo [2,3-b]pyridin-5-yl)oxy)-4-(2-((R or S)-3-(2-cyclopropylphenyl)morpholino)-7-azaspiro[3.5]nonan-7-yl)-N-(((S)-2-(morpholinomethyl)-8-nitro-2,3-dihydrobenzo [b][1,4]dioxin-6-yl)sulfonyl) benzamide] | ≤ 1 nM

test system: Toledo cells; test: Cell proliferation assay, Toledo cells (MTS, 72 h); type: cell-based; details: Homo sapiens, Toledo cells, MTS, read-out: Toledo IC50
Summary of the method: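 Toledo cells (30000/well, RPMI-1640 with 10% FBS) were preincubated for 4 h. They were then exposed to nine compound concentrations from 10000 to 1.5 nM for 72 h at 37 °C, 5% CO2. MTS was added for 2 h and absorbance read at 490 nm to give IC50.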

Row | SMILES | IC50
4 | CC(C)c1ccccc1[C@H]1CCCN1C1CC2(CCN(c3ccc(C(=O)NS(=O)(=O)c4cc5c(c([N+](=O)[O-])c4)NC([C@H]4COCCO4)CO5)c(Oc4cnc5[nH]cc(F)c5c4)c3)CC2)C1 (single isomer, unassigned) [Example D-50a, N-(((R or S)-3-((S)-1,4-dioxan-2-yl)-5-nitro-3,4-dihydro-2H-benzo[b][1,4]oxazin-7-yl)sulfonyl)-2-((3-fluoro-1H-pyrrolo[2,3-b]pyridin-5-yl)oxy)-4-(2-((R or S)-2-(2-isopropylphenyl)pyrrolidin-1-yl)-7-azaspiro[3.5]nonan-7-yl)benzamide] | 1 nM
5 | Cc1nc2[nH]ccc2cc1Oc1cc(N2CCC3(CC2)CC(N2CCC[C@H]2c2ccccc2C(C)C)C3)ccc1C(=O)NS(=O)(=O)c1cc2c(c([N+](=O)[O-])c1)N[C@@H]([C@H]1CC[C@](C)(O)CC1)CO2 (single isomer, unassigned) [Example D-39, N-(((S)-3-((1r,4S)-4-hydroxy-4-methylcyclohexyl)-5-nitro-3,4-dihydro-2H-benzo[b][1,4]oxazin-7-yl)sulfonyl)-4-(2-((R or S)-2-(2-isopropylphenyl)pyrrolidin-1-yl)-7-azaspiro[3.5]nonan-7-yl)-2-((6-methyl-1H-pyrrolo[2,3-b]pyridin-5-yl)oxy)benzamide] | 1 nM
6 | CO[C@H]1CC[C@H]([C@H]2COc3cc(S(=O)(=O)NC(=O)c4ccc(N5CCC6(CC5)CC(N5CCC[C@H]5c5ccccc5C(C)C)C6)cc4Oc4cnc5[nH]cc(F)c5c4)cc([N+](=O)[O-])c3N2)CC1 (single isomer, unassigned) [Example D-44, 2-((3-fluoro-1H-pyrrolo[2,3-b]pyridin-5-yl)oxy)-4-(2-((R or S)-2-(2-isopropylphenyl)pyrrolidin-1-yl)-7-azaspiro[3.5]nonan-7-yl)-N-(((S)-3-((1r,4S)-4-methoxycyclohexyl)-5-nitro-3,4-dihydro-2H-benzo[b][1,4]oxazin-7-yl)sulfonyl)benzamide] | 1 nM
